Measurements reported in PubChem BioAssay AID1645864 (Buhrlage Lab, Dana-Farber Cancer Institute and Novartis …, 2021).
Activity calls are given as the source filed them.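 How the source made its calls: active means maximal inhibition of USP17 at or above 30% in the confirmation dose-response, a value not among the printed readouts; inactive means the rest.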

Target: Ubiquitin carboxyl-terminal hydrolase 17-like protein 5 (Homo sapiens) (UniProt A8MUK1)
Assay: ubiquitin-specific protease 17 inhibitors, concentration series, biochemical, verification of primary actives (AID 1645864)
Conditions: purified USP17, ubiquitin-rhodamine cleavage fluorescence, 3 h

Sequence of Ubiquitin carboxyl-terminal hydrolase 17-like protein 5 (Homo sapiens) (A8MUK1 whole entry, looked up): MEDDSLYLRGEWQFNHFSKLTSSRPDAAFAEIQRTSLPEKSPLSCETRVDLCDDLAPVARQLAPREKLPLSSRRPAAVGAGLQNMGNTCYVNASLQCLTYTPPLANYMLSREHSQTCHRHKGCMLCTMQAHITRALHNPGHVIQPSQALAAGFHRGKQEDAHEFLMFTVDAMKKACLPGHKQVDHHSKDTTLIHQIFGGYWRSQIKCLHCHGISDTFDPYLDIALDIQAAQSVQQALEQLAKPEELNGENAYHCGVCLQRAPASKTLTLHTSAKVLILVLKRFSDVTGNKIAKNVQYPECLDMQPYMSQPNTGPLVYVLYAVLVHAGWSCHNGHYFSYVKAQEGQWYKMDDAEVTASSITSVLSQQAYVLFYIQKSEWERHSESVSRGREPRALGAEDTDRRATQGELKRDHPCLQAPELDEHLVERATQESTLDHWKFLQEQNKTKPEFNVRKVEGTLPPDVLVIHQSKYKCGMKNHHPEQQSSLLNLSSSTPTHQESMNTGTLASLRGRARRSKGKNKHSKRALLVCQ

Row | Structure (SMILES) | IC50
1 | O=C(CSc1nnc(-c2ccc3c(c2)OCO3)n1-c1ccccc1)OCC(=O)c1ccccc1 | > 50 µM (inactive)
2 | CC[C@@]1(O)C[C@H](OC2CC(N(C)C)C(OC3CC(O)C(OC4CCC(=O)C(C)O4)C(C)O3)C(C)O2)c2c(cc3c(c2O)C(=O)c2c(O)ccc(O)c2C3=O)[C@H]1C(=O)OC (some centres undefined) | 2.51 µM
3 | COc1ccc(NC(=O)c2nc3n(n2)-c2ccccc2S(=O)(=O)N3)cn1 | > 50 µM (inactive)
4 | O=C1c2ccccc2NC2(C(=O)Nc3ccc(Br)cc32)N1c1ccccc1 (centres undefined) | > 50 µM (inactive)
5 | Fc1cccc(-n2cc(-c3noc(-c4ccccn4)n3)nn2)c1 | 30.1 µM
6 | CC(=O)Nc1cc(-c2cccc(O)c2)cn2c(-c3cnn(C)c3)cnc12 | 3.57 µM
7 | CC(=O)Nc1ccc(NC(=O)c2cc(-c3cc(C)cc(C)c3O)n[nH]2)cc1 | 16.3 µM
8 | Cc1nnc(NCc2cccnc2)c2c1nnn2Cc1ccccc1Cl | 34 µM
9 | Cc1cccc(NC(=O)CN2C(=O)CC(c3ccccc3)S(=O)(=O)c3ccccc32)c1C (centres undefined) | 25.3 µM
10 | CC(C)Cc1nc2sc3c(NCc4ccccc4)ncnc3c2c2c1COC(C)(C)C2 | 6.77 µM
11 | Fc1cnc(N2CC[C@H]3CO[C@H](CNc4ncccn4)[C@H]3C2)nc1 | > 50 µM (inactive)
12 | CN(C)c1ccc(C2CC(c3c(O)n(C)c(=O)[nH]c3=O)=Nc3ccccc3S2)cc1 (centres undefined) | 2.37 µM
13 | COc1cnc(-c2ccccn2)nc1Sc1ccccc1Cl | 16.2 µM
14 | Cc1ccc(NC(=O)Cn2c(Nc3cccc(C)c3)nc(C)cc2=O)cc1 | 42.1 µM
15 | Cc1ccc(N2CC(c3nc4ccccc4n3CCCCOc3ccccc3)CC2=O)cc1 (centres undefined) | > 50 µM (inactive)
16 | CC1CCCN(S(=O)(=O)c2cc3cc(F)ccc3oc2=O)C1 (centres undefined) | 31.1 µM
17 | Cc1cc(Nc2ccc(C(=O)NCc3ccco3)cc2)n2nc(-c3cccnc3)nc2n1 | 34.1 µM
18 | COc1ccc(NC(=O)c2cc(-c3cccnc3)n[nH]2)cc1Cl | 11.1 µM
19 | CSc1nc(Cc2ccc(Cl)cc2)nc2ccccc12 | > 50 µM (inactive)
20 | Cc1c(C(=O)Nc2cccc(C(F)(F)F)c2)cnn1-c1ccccn1 | 34.4 µM
21 | O=C(COc1nc2ccccc2nc1N1CCOCC1)Nc1cccc(S(=O)(=O)N2CCCCC2)c1 | > 50 µM (inactive)
22 | CC1=CC(=O)C(C2=C(O)C(=O)C(C)=CC2=O)=C(O)C1=O | 3.55 µM

Row | Structure (SMILES) | IC50
23 | COc1cc(OC)cc(C(=O)Nc2cnc(-c3ccccc3)nc2)c1 | > 50 µM (inactive)
24 | Cc1ccc(CSC2=NS(=O)(=O)c3ccccc3N2)cc1 | > 50 µM (inactive)
25 | Nc1ncnc(SCc2ccc(Cl)cc2)n1 | 27.1 µM
26 | COc1ccc(-c2cc3nc([C@H](C)NC(=O)Cc4cccc(F)c4)nn3cn2)cc1 | 3.75 µM
27 | O=C(COc1ccc(Cl)cc1)NCc1nnc(SCC(=O)NCc2ccc3c(c2)OCO3)o1 | 28.2 µM
28 | Cc1ccn(-c2ccc(NC(=O)c3ccccc3Sc3ccccc3C#N)cc2)n1 | 44.7 µM
29 | O=C(COc1ccc(F)cc1)Nc1cnc(-c2ccc(Cl)cc2)nc1 | 24 µM
30 | COc1ccc(C(=O)CSc2nnc(-c3cccnc3)n2-c2ccccc2)cc1 | > 50 µM (inactive)
31 | CC(=O)c1sc(NC(=O)c2ccccc2-c2ccc(C(F)(F)F)cc2)nc1C | 17 µM
32 | CCC1=C(c2ccc(C)cc2)S(=O)(=O)NC1=NCC(=O)NCc1ccccc1F | 35.3 µM
33 | Cc1ccc(S(=O)(=O)c2cnc(SCC(=O)Nc3ccc(Cl)cc3)nc2N)cc1C | 29.8 µM
34 | CC(C)c1ccc(NC(=O)COC(=O)c2ccc3[nH]c4c(c3c2)CCCC4)cc1 | 42.7 µM
35 | Cc1c(OCC(=O)Nc2nc3ccccc3[nH]2)ccc2c3c(c(=O)oc12)CCC3 | 0.339 µM
36 | O=S1(=O)NC(=NCCc2ccc(Cl)cc2Cl)c2ccccc21 | 36.4 µM
37 | CCN(CC)c1cc(C)c2cc(NC(=O)c3ccncc3)ccc2n1 | > 50 µM (inactive)
38 | O=S(=O)(c1cccc(F)c1)N1CCN(c2nnnn2-c2ccccc2)CC1 | 40.3 µM
39 | FC(F)(F)c1cccc(N2CCN(c3nc4ccccc4n4nnnc34)CC2)c1 | > 50 µM (inactive)
40 | CCc1ccc(-n2c(=O)c3ccccc3n(CC(=O)NCCC3=CCCCC3)c2=O)cc1 | 17.9 µM
41 | O=S(=O)(c1ccc(F)cc1)N1CCCC1c1ccnc(Nc2cnccn2)n1 (centres undefined) | > 50 µM (inactive)
42 | CN1CCN(C(=O)c2ccn(-c3ccc4ccc(-c5cnn(C)c5)cn34)n2)CC1 | > 50 µM (inactive)
43 | CN1CC2CN(C(=O)c3ccc(F)cc3)CCN2Cc2ccccc21 (centres undefined) | > 50 µM (inactive)

Results, then the molecule that gave them:

Row | IC50 | Structure (SMILES)
44 | 31.7 µM | CCOc1ccc(CC(=O)Nc2ccc(-c3cn4cccnc4n3)cc2)cc1
45 | 10.2 µM | COc1ccc(C(=O)Nc2nc3n(n2)C(c2ccccc2)CC(=O)N3)cc1 (centres undefined)
46 | 23.7 µM | CCCCNC(=O)C1Sc2nnc(-c3ccccc3)n2NC1c1ccccc1 (centres undefined)
47 | 34.7 µM | O=C(/C=C/c1c(F)cccc1Cl)N1CCc2ccccc2C1
48 | 3.15 µM | O=C(NCc1ccc2c(c1)OCO2)c1cc(-c2cc(Cl)ccc2O)n[nH]1
49 | 30.9 µM | O=C1Nc2c(Cl)cc(Cl)cc2C1(O)c1sc(NC2CCCCC2)nc1-c1ccccc1 (centres undefined)
50 | 6.84 µM | COc1cccc(Cn2nc3n(CC(C)C)c(=O)c4ccc(C(=O)NCC(C)C)cc4n3c2=O)c1
51 | > 50 µM (inactive) | COc1ccc2nc(Nc3nc(-c4cnc(N5CCOCC5)nc4C)cc(=O)[nH]3)nc(C)c2c1
52 | 33.8 µM | N#Cc1c(-c2ccccc2)ccn(Cc2cccc(C(F)(F)F)c2)c1=O
53 | 2.48 µM | N#Cc1ccc(-c2ccc(OCC(=O)Nc3ccc4c(c3)OCO4)cc2)cc1
54 | > 50 µM (inactive) | O=c1c2cnc3nc(-c4cccnc4)nn3c2ccn1CCc1ccccc1
55 | 23.8 µM | O=c1c(S(=O)(=O)c2cc(F)cc(F)c2)c[nH]c2cc(Cl)ccc12
56 | > 50 µM (inactive) | CC(C)(C)C(=O)C1C2C(=O)N(Cc3ccccc3)C(=O)C2C2c3ccccc3C=CN12 (centres undefined)
57 | > 50 µM (inactive) | CCOC(=O)c1ccc(NC(=O)C[n+]2cc(-c3ccc(Cl)cc3)n3c2CCC3)cc1
58 | 20.5 µM | CCOC(=O)CSc1nnc(-c2cnn(-c3ccccc3)c2N)o1
59 | 13.7 µM | O=C1NC(=O)/C(=C/c2ccc(OC(=O)c3ccc(Cl)cc3Cl)cc2)N1
60 | > 50 µM (inactive) | CC(=O)c1ccc(NC(=O)C2CCN(c3cncnc3N3CCCC3)CC2)cc1
61 | 44.1 µM | Cc1nc(SCC#N)c2oc3ccccc3c2n1
62 | > 50 µM (inactive) | CCN1C(=O)c2cccnc2Sc2cc(NC(=O)c3ccc(Cl)s3)ccc21

Row | IC50 | Structure (SMILES)
63 | 27.8 µM | O=C(Cn1c(=O)nc(-c2ccccc2)c2ccccc21)NCc1ccc2c(c1)OCO2
64 | 0.391 µM | COc1ccc(OCCn2c(C3CC(=O)N(c4cccc(C)c4)C3)nc3ccccc32)cc1 (centres undefined)
65 | 3.92 µM | C=Cc1ccc(Cn2cccc(S(=O)(=O)N3CCCC3)c2=O)cc1
66 | > 50 µM (inactive) | CC(=O)N1CCOc2cc(S(=O)(=O)N3CCCC3c3cc(C)no3)ccc21 (centres undefined)
67 | 23.7 µM | CSc1ccc(CNC(=O)CC2CCN(S(=O)(=O)c3ccc(C)cc3)CC2)cc1
68 | > 50 µM (inactive) | COC(=O)C1C(c2ccc(Cl)cc2Cl)C2(C(=O)c3ccccc3C2=O)C2C=Cc3ccccc3N12 (centres undefined)
69 | 5.29 µM | CCOc1ccc2c(c1)c(=O)c(C(=O)c1ccccc1)cn2CC(=O)Nc1ccccc1
70 | 1.73 µM | CC(C)c1ccc(NC(=O)c2cc3ncc(Br)cn3n2)cc1
71 | > 50 µM (inactive) | CCCc1nc2sc3c(NCc4ccco4)ncnc3c2c2c1CCC2
72 | > 50 µM (inactive) | Cc1ccc2nc(N3CCc4ccccc4C3)c3nncn3c2c1
73 | > 50 µM (inactive) | CN1c2ccccc2CN(CC(N)=O)CC1Cc1ccccc1 (centres undefined)
74 | 18.7 µM | COc1ccc(CCNC(=O)c2cn(-c3ccc(F)cc3)nn2)cc1OC
75 | 0.577 µM | O=C(Nc1ccc(-c2cn3ccccc3n2)cc1)C1C=C2C=C(Br)C=CC2OC1=O (centres undefined)
76 | 12.9 µM | Cc1cc(=O)n(CC(=O)Nc2ccccc2F)c(Nc2ccc(F)cc2)n1
77 | 37.8 µM | NS(=O)(=O)c1ccc(NS(=O)(=O)c2ccc(NC(=O)Nc3ccc(Cl)cc3)cc2)cc1
78 | 4.88 µM | Cc1noc(-c2cc(=O)n(CC(=O)NCc3ccccc3F)c3ccccc23)n1
79 | > 50 µM (inactive) | CC(=O)c1ccc(Cc2ncc(C(F)(F)F)cc2Cl)s1
80 | > 50 µM (inactive) | Cc1ccc(S(=O)(=O)N2CCCCC2)cc1NC(=O)Cc1cccc(F)c1
81 | 28.2 µM | COc1cccc(N2CCN(c3ccc4nnc(CCC(=O)N5CCc6ccccc6C5)n4n3)CC2)c1

Row | IC50 | Structure (SMILES)
82 | 45.2 µM | O=C(Cn1c(=O)n(Cc2ccc(F)cc2)c(=O)c2ncccc21)Nc1ccccc1
83 | 26.4 µM | Cc1cccc(NC(=O)CN2C(=O)COc3cc(S(=O)(=O)N4CCCC4)ccc32)c1C
84 | > 50 µM (inactive) | Cc1cccc(O)c1-c1nc2c(-c3nc4c(C(=O)O)cccc4o3)cccc2o1
85 | > 50 µM (inactive) | Cc1ccc2cc3c(nc2n1)CCN(Cc1ccc(F)cc1)C3
86 | 3.52 µM | O=C(Nc1cccc(Cl)c1)N1CCC(c2cc(-c3ccco3)n[nH]2)CC1
87 | > 50 µM (inactive) | Cc1ccc2c(c1)N=C(c1ccc([N+](=O)[O-])cc1)CO2
88 | > 50 µM (inactive) | CC(C)(C)c1cc(CCC(=O)Nc2c3c(nc4c2CCC4)CCCC3)cc(C(C)(C)C)c1O
89 | 10.8 µM | COc1ccc(-c2nc(SCC(=O)Nc3ccc(C(C)=O)cc3)n[nH]2)cc1
90 | > 50 µM (inactive) | NS(=O)(=O)c1ccc(Cl)c(C(=O)OCc2csc(Nc3ccccc3)n2)c1
91 | > 50 µM (inactive) | O=C(NCc1ccncc1)C1CCN(c2cncnc2N2CCCCC2)CC1
92 | > 50 µM (inactive) | COc1ccc(-c2nc(C)c(C(=O)NCc3ccc(S(N)(=O)=O)cc3)s2)cc1
93 | 2.67 µM | O=c1c2ccccc2oc2nc(-c3cccs3)n(-c3ccccc3)c(=O)c12
94 | 24.4 µM | Cc1ccc(C)c(Cn2nnc3c(=O)[nH]c(C4CCN(S(=O)(=O)c5ccc(S(=O)(=O)NC6CC6)cc5)CC4)nc32)c1
95 | 10.6 µM | NC(=O)c1nnn(-c2ccc(NC(=O)c3ccc(F)c(F)c3)cc2)n1
96 | > 50 µM (inactive) | CCOC(=O)c1cnc(C(F)(F)F)nc1Sc1n[nH]c(-c2cccs2)n1
97 | > 50 µM (inactive) | O=C1C[C@@H]2O[C@H](CNC(=O)[C@@H]3CN(CCN3C(=O)C3CCOCC3)C(=O)[C@@H]3C[C@@H](CN3Cc3ccc(F)c(F)c3)N1)[C@@H](O)[C@H]2O
98 | 32.6 µM | Cc1ccc(NC(=O)Cn2c(-n3nc(C)cc3C)nc3c(c2=O)CCCC3)c(C)c1
99 | 1.67 µM | Cc1nc(SCC(=O)Nc2cc(Cl)ccc2C)c2oc3ccccc3c2n1
